{
  "source": "paper PMC3962778",
  "about": "(Journal of medicinal chemistry, 2014)",
  "key": {"[1]": {"system": "T. brucei brucei (strain BF427)", "assay": "In vitro parasite growth arrest assay", "format": "cell-based, Trypanosoma brucei brucei", "conditions": "for EC50: Trypanosoma brucei"}, "[2]": {"system": "T. brucei rhodesiense STIB 900 strain", "assay": "Anti-parasite efficacy studies in mice", "conditions": "for Cured / Day of euthanasia: mice, oral, 5 days"}, "[3]": {"conditions": "5 mg/kg, 2 doses per day, Exp 1 and Exp 2"}, "[4]": {"conditions": "20 mg/kg, 1 dose per day, Exp 2"}, "[5]": {"conditions": "20 mg/kg, 2 doses per day, Exp 1"}, "[6]": {"conditions": "50 mg/kg, 1 dose per day, Exp 1"}},
  "note": "Values joined by “and” are separate entries in the source; they are usually repeats but may differ in a detail not shown here. Equal entries are not always repeated. Where two headings read alike, the source gives them in different places.",
  "data": [
    {"smiles": "O=C(Nc1ccc(F)c(-c2nc3cc(-c4ccccc4)cnc3[nH]2)c1)N1CCCC1", "note": "[Compound 64]", "values": [
      {"measurement": "extent of growth inhibition of T. brucei in vitro", "setting": "[1]", "value": "complete growth inhibition"},
      {"measurement": "lowest oral dose at which infected mice were cured (dosed orally down to)", "setting": "[2]; T. brucei infected mice", "value": 2.5, "unit": "mg/kg"},
      {"measurement": "Cured", "setting": "[2]; 1 mg/kg, 2 doses per day, Exp 2", "value": "0 of 5 and 0/5"},
      {"measurement": "Cured", "setting": "[2]; 2.5 mg/kg, 2 doses per day, Exp 2", "value": "2 of 5 and 2/5"},
      {"measurement": "Cured", "setting": "[2]; 5 mg/kg, 1 dose per day, Exp 2", "value": "2 of 5 and 2/5"},
      {"measurement": "Cured", "setting": "[2]; [3]", "value": "all mice were cured and 5/5"},
      {"measurement": "Day of euthanasia", "setting": "[2]; [3]", "value": 60},
      {"measurement": "Cured", "setting": "[2]; [4]", "value": "Cures in all mice and 5/5"},
      {"measurement": "Day of euthanasia", "setting": "[2]; [4]", "value": 60},
      {"measurement": "Cured", "setting": "[2]; [5]", "value": "Cures in all mice and 5/5"},
      {"measurement": "Day of euthanasia", "setting": "[2]; [5]", "value": 60},
      {"measurement": "Cured", "setting": "[2]; [6]", "value": "Cures in all mice and 5/5"},
      {"measurement": "Day of euthanasia", "setting": "[2]; [6]", "value": 60},
      {"measurement": "Cured", "setting": "[2]; 50 mg/kg, 2 doses per day, Exp 1", "value": "Cures in all mice and 5/5"},
      {"measurement": "Day of euthanasia", "setting": "[2]; 50 mg/kg, 2 doses per day, Exp 1, day 60 = cured", "value": 60}
    ]},
    {"smiles": "N=C(N)c1ccc(OCCCCCOc2ccc(C(=N)N)cc2)cc1", "note": "[Pentamidine, reference compound]", "values": [
      {"measurement": "EC50", "setting": "[1]; read-out: EC50, concentration of compound required to inhibit growth by 50%", "value": 1.7, "unit": "nM"},
      {"measurement": "EC50", "setting": "[1]; read-out: EC50 against T. brucei in vitro", "value": 1.2, "unit": "nM"}
    ]},
    {"smiles": "Nc1ccc(Cl)c(-c2nc3ncccc3o2)c1", "note": "[Compound 36]", "values": [
      {"measurement": "inhibition of T. brucei growth in vitro", "setting": "[1]; tested up to 20 μM", "value": "no inhibition"}
    ]}
  ]
}
